# Results published in paper PMC11864979, “First-in-class ultralong-target-residence-time p38α inhibitors as a mitosis-targeted therapy for colorectal cancer” (Nature Cancer, 2025).
# Read-outs that look alike come from different tables or passages of the source.
# Legend:
# Assay in all cases: selectivity profiling in a panel of 340 wild-type kinases (Reaction Biology Europe)
# Type in all cases: binding
# [1] = target: T1, 340 wild-type kinases (Homo sapiens, UniProt P17252)
# T1 construct: purchased Reaction Biology Europe
# [2] = target: T2, 340 wild-type kinases (Homo sapiens, UniProt Q9HBH9)
# T2 construct: purchased Reaction Biology Europe
# [3] = target: T3, 340 wild-type kinases (Homo sapiens, UniProt P23458)
# T3 construct: purchased Reaction Biology Europe
# [4] = target: T4, 340 wild-type kinases (Homo sapiens, UniProt Q13557)
# T4 construct: purchased Reaction Biology Europe
# [5] = target: T5, 340 wild-type kinases (Homo sapiens, UniProt P06241)
# T5 construct: purchased Reaction Biology Europe
# [6] = target: T6, 340 wild-type kinases (Homo sapiens, UniProt O14733)
# T6 construct: purchased Reaction Biology Europe
# T6 sequence (O14733 1-419): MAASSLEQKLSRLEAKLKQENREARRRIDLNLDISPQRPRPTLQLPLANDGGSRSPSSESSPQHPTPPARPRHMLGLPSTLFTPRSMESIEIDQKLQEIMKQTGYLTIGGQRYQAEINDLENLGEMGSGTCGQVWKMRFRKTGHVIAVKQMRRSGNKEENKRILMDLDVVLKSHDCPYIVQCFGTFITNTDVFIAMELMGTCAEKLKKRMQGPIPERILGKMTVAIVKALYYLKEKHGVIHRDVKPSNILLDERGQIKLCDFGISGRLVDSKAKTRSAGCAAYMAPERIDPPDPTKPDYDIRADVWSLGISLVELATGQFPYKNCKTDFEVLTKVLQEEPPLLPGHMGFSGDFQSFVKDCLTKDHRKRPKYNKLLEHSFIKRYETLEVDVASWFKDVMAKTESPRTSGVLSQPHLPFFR
# [7] = target: T7, 340 wild-type kinases (Homo sapiens, UniProt Q96RR4)
# T7 construct: purchased Reaction Biology Europe
# [8] = target: T8, 340 wild-type kinases (Homo sapiens, UniProt Q9Y243)
# T8 construct: purchased Reaction Biology Europe
# [9] = target: T9, 340 wild-type kinases (Homo sapiens, UniProt Q8NG66)
# T9 construct: purchased Reaction Biology Europe
# T9 sequence (Q8NG66 1-645): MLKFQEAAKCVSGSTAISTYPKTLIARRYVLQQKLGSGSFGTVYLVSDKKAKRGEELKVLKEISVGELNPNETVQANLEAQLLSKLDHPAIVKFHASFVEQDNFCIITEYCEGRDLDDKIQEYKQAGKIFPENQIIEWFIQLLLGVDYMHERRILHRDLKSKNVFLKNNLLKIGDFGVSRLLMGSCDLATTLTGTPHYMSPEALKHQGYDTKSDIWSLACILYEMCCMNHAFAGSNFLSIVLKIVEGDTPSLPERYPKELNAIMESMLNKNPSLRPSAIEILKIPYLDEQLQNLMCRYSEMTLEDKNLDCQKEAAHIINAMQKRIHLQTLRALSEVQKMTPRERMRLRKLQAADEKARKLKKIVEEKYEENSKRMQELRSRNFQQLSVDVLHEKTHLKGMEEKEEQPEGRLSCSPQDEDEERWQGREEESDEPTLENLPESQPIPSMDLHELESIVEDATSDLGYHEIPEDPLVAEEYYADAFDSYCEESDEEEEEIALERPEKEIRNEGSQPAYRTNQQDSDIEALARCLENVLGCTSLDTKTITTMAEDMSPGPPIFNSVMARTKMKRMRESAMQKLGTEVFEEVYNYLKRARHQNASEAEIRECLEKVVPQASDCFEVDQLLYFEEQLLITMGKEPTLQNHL
# [10] = target: T10, 340 wild-type kinases (Homo sapiens, UniProt P48730)
# T10 construct: purchased Reaction Biology Europe
# T10 sequence (P48730 whole entry): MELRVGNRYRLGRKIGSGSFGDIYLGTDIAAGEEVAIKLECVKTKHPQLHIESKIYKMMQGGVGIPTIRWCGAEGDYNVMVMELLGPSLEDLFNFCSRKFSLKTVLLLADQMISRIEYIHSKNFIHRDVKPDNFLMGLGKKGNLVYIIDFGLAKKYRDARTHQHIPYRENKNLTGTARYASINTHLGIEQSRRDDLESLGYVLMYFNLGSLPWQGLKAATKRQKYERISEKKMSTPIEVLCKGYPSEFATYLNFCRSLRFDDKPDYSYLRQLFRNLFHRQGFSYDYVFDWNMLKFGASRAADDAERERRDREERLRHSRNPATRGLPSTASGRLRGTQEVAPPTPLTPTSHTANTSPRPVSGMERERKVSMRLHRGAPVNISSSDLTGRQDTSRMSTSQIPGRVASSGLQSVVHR
# T2 sequence (Q9HBH9 whole entry): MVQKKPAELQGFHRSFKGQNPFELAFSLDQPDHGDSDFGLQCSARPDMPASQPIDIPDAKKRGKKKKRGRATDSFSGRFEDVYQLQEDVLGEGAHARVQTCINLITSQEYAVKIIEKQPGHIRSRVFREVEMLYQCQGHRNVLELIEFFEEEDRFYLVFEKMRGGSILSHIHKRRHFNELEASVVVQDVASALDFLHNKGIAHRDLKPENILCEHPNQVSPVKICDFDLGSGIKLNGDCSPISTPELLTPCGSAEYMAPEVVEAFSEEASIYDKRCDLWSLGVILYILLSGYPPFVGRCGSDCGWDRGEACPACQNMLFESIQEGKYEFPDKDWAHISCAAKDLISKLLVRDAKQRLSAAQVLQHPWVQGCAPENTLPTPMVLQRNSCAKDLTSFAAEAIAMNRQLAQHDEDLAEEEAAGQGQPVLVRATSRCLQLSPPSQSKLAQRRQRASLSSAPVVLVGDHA
# T8 sequence (Q9Y243 whole entry): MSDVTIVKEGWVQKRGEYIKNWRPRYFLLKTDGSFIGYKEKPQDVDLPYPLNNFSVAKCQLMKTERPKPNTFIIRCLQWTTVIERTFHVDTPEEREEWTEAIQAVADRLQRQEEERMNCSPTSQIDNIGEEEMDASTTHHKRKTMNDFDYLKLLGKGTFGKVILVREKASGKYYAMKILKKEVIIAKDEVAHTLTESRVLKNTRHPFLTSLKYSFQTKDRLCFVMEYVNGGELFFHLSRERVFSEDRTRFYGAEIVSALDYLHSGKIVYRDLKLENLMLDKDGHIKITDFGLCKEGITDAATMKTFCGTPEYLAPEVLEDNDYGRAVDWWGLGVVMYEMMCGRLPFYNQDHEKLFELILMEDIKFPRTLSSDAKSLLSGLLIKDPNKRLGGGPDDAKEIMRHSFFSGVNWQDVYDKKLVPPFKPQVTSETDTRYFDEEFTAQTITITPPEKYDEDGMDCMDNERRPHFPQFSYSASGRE
# T7 sequence (Q96RR4 whole entry): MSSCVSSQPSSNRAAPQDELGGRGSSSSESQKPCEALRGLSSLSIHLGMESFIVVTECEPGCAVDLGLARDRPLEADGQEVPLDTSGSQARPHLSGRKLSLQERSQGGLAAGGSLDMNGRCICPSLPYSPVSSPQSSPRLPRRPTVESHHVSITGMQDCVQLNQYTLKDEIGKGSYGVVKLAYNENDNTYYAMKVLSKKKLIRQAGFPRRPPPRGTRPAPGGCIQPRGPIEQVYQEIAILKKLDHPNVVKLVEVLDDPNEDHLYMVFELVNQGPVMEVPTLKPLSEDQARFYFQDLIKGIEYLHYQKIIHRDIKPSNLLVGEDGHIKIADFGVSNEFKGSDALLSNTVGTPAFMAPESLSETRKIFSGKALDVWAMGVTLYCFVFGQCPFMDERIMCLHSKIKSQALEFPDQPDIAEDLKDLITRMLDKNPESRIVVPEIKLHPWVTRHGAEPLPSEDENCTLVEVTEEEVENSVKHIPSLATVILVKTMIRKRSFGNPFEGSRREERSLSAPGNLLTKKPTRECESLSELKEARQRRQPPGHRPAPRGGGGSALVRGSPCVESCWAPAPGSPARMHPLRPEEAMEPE
# T3 sequence (P23458 whole entry): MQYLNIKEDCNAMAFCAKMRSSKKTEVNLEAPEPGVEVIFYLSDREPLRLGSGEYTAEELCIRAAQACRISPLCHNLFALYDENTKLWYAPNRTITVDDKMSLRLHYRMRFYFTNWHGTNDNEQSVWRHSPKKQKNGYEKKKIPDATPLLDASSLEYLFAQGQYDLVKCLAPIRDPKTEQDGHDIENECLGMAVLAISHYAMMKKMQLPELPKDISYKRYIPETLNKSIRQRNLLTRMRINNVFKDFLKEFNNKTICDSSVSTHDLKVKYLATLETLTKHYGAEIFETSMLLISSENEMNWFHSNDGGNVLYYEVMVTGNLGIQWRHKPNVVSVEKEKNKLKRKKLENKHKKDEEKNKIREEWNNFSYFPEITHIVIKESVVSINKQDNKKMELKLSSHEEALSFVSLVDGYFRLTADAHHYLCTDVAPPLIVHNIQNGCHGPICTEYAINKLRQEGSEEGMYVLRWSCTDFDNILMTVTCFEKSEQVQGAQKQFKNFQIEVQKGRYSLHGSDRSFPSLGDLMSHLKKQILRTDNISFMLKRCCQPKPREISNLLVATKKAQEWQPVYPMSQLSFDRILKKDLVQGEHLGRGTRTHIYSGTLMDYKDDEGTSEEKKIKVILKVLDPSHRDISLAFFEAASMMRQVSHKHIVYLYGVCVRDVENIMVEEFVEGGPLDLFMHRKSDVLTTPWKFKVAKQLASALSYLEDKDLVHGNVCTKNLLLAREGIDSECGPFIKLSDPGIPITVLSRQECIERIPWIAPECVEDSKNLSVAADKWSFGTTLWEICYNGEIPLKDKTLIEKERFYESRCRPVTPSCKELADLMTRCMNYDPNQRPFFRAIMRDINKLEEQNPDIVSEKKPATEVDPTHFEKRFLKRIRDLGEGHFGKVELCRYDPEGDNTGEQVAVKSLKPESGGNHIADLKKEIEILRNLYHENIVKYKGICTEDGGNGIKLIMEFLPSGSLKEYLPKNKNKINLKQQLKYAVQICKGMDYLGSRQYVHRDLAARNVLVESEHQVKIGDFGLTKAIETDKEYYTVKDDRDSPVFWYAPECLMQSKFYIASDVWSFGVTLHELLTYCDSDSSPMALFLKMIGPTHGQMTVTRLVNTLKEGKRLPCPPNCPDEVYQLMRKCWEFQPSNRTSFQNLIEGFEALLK
# T4 sequence (Q13557 whole entry): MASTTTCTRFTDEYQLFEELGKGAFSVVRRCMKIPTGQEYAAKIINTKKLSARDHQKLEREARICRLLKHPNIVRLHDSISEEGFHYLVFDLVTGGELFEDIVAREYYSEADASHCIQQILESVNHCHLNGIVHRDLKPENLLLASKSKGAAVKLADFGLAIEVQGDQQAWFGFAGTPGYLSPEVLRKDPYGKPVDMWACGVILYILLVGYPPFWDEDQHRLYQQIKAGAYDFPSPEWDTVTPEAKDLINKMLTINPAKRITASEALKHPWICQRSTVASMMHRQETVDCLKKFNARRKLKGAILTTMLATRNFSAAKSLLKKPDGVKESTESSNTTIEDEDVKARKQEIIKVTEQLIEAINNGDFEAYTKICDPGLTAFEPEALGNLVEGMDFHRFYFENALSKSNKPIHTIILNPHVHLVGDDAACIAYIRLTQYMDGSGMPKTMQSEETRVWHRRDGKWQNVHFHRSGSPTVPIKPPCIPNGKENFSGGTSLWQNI
# T5 sequence (P06241 whole entry): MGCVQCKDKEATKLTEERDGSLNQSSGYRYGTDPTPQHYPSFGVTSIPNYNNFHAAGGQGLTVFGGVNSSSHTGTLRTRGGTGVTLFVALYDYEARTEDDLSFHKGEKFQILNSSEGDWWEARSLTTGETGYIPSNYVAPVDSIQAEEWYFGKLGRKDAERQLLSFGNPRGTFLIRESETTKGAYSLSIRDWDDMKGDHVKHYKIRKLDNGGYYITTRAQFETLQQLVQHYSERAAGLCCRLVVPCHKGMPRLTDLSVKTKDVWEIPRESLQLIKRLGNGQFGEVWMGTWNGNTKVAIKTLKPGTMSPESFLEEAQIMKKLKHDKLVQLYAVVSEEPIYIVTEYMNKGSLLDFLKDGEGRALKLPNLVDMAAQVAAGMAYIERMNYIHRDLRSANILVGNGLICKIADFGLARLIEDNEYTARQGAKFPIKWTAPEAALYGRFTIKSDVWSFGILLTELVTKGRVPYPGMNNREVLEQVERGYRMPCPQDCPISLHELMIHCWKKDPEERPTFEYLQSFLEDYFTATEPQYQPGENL
smiles,measurement,setting,value
CNC(=O)c1ccc2c(c1)C(=O)c1ccc(Nc3ccc(F)c(NC(=O)C4CC4)c3)cc1CC2 [Compound 2015],remaining activity at 0.2 µM,"[1]; 0.2 µM 2015, read-out: PKCalpha residual activity",118%
same,remaining activity at 1 µM,"[1]; 1 µM 2015, read-out: PKCalpha residual activity",98.8%
same,remaining activity at 0.2 µM,"[1]; PKCalpha, 0.2 µM, read-out: residual activity",118%
same,remaining activity at 1 µM,"[1]; PKCalpha, 1 µM, read-out: residual activity",98.8%
same,remaining activity at 0.2 µM,"[2]; 0.2 µM 2015, read-out: MKNK2 residual activity",105%
same,remaining activity at 1 µM,"[2]; 1 µM 2015, read-out: MKNK2 residual activity",102%
same,remaining activity at 0.2 µM,"[2]; MKNK2, 0.2 µM, read-out: residual activity",105%
same,remaining activity at 1 µM,"[2]; MKNK2, 1 µM, read-out: residual activity",102%
same,remaining activity at 0.2 µM,"[3]; 0.2 µM 2015, read-out: JAK1 residual activity",86.7%
same,remaining activity at 1 µM,"[3]; 1 µM 2015, read-out: JAK1 residual activity",99.8%
same,remaining activity at 0.2 µM,"[3]; JAK1, 0.2 µM, read-out: residual activity",86.7%
same,remaining activity at 1 µM,"[3]; JAK1, 1 µM, read-out: residual activity",99.8%
same,remaining activity at 0.2 µM,"[4]; 0.2 µM 2015, read-out: CAMK2D residual activity",98.1%
same,remaining activity at 1 µM,"[4]; 1 µM 2015, read-out: CAMK2D residual activity",95.7%
same,remaining activity at 0.2 µM,"[4]; CAMK2D, 0.2 µM, read-out: residual activity",98.1%
same,remaining activity at 1 µM,"[4]; CAMK2D, 1 µM, read-out: residual activity",95.7%
same,remaining activity at 0.2 µM,"[5]; 0.2 µM 2015, read-out: FYN residual activity",119%
same,remaining activity at 1 µM,"[5]; 1 µM 2015, read-out: FYN residual activity",101%
same,remaining activity at 0.2 µM,"[5]; FYN, 0.2 µM, read-out: residual activity",119%
same,remaining activity at 1 µM,"[5]; FYN, 1 µM, read-out: residual activity",101%
same,remaining activity at 0.2 µM,"[6]; 0.2 µM 2015, read-out: MKK7 residual activity",102%
same,remaining activity at 1 µM,"[6]; 1 µM 2015, read-out: MKK7 residual activity",117%
same,remaining activity at 0.2 µM,"[6]; MKK7, 0.2 µM, read-out: residual activity",102%
same,remaining activity at 1 µM,"[6]; MKK7, 1 µM, read-out: residual activity",117%
same,remaining activity at 0.2 µM,"[7]; 0.2 µM 2015, read-out: CAMKK2 residual activity",96%
same,remaining activity at 1 µM,"[7]; 1 µM 2015, read-out: CAMKK2 residual activity",96.6%
same,remaining activity at 0.2 µM,"[7]; CAMKK2, 0.2 µM, read-out: residual activity",96%
same,remaining activity at 1 µM,"[7]; CAMKK2, 1 µM, read-out: residual activity",96.6%
same,remaining activity at 0.2 µM,"[8]; 0.2 µM 2015, read-out: AKT3 residual activity",96%
same,remaining activity at 1 µM,"[8]; 1 µM 2015, read-out: AKT3 residual activity",89.5%
same,remaining activity at 0.2 µM,"[8]; AKT3, 0.2 µM, read-out: residual activity",96%
same,remaining activity at 1 µM,"[8]; AKT3, 1 µM, read-out: residual activity",89.5%
same,remaining activity at 1 µM,"[9]; 1 µM 2015, read-out: NEK11 residual activity",95.8%
same,remaining activity at 0.2 µM,"[9]; NEK11, 0.2 µM, read-out: residual activity",91.3%
same,remaining activity at 1 µM,"[9]; NEK11, 1 µM, read-out: residual activity",95.8%
same,remaining activity at 0.2 µM,"[10]; 0.2 µM 2015, read-out: CK1delta residual activity",117%
same,remaining activity at 1 µM,"[10]; 1 µM 2015, read-out: CK1delta residual activity",111%
same,remaining activity at 0.2 µM,"[10]; CK1delta, 0.2 µM, read-out: residual activity",117%
same,remaining activity at 1 µM,"[10]; CK1delta, 1 µM, read-out: residual activity",111%
